{
  "source": "patent US9926302B2",
  "about": "“Heteroaryl substituted heterocyclyl sulfones” (priority 2014, dated 2018)",
  "data": [
    {"biological_target": "T1, Human CaV2.2 channels (Homo sapiens, UniProt Q00975)", "T1 construct": "expressed in transfected cells", "T1 sequence (P54289 947-1103)": "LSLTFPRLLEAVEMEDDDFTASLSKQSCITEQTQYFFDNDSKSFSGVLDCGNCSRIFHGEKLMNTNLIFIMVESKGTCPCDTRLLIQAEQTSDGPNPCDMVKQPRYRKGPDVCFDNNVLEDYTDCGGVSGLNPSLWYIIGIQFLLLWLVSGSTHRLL", "T1 sequence (P54289 25-946)": "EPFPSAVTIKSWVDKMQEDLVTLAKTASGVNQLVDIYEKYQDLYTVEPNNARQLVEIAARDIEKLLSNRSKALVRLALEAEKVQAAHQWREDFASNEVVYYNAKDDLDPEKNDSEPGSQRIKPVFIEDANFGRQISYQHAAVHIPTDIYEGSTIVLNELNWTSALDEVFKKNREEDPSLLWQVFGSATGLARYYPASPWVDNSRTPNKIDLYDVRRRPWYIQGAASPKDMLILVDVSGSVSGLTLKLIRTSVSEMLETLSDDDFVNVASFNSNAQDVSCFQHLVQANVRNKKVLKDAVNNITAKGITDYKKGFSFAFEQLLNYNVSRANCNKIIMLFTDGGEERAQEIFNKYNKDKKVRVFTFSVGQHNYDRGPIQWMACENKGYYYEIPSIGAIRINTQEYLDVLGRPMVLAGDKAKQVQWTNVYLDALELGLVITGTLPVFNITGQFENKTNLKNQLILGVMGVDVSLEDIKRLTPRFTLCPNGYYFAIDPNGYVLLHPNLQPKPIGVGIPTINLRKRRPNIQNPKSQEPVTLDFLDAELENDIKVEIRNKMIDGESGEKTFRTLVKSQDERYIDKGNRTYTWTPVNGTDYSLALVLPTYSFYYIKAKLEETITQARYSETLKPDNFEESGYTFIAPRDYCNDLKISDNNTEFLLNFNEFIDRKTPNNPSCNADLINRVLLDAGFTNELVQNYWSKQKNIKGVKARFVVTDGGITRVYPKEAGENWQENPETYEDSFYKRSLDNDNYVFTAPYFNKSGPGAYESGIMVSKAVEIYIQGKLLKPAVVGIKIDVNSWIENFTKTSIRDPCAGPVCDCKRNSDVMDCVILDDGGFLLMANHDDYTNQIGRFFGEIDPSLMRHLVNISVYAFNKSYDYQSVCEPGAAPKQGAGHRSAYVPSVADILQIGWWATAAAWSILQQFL", "T1 sequence (P54284 whole entry, further chain)": "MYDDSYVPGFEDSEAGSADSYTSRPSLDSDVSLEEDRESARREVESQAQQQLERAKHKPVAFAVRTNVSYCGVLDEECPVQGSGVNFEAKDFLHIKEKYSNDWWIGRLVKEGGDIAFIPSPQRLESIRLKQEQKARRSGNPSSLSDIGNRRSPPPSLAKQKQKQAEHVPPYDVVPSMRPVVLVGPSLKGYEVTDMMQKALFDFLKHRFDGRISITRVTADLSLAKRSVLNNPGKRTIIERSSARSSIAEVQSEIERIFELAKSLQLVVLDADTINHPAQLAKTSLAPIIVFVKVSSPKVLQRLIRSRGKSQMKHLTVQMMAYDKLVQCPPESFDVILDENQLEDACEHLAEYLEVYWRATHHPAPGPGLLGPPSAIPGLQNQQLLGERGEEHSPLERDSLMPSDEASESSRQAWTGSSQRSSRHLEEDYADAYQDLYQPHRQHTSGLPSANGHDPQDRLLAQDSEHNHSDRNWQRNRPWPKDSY", "T1 sequence (Q00975 whole entry)": "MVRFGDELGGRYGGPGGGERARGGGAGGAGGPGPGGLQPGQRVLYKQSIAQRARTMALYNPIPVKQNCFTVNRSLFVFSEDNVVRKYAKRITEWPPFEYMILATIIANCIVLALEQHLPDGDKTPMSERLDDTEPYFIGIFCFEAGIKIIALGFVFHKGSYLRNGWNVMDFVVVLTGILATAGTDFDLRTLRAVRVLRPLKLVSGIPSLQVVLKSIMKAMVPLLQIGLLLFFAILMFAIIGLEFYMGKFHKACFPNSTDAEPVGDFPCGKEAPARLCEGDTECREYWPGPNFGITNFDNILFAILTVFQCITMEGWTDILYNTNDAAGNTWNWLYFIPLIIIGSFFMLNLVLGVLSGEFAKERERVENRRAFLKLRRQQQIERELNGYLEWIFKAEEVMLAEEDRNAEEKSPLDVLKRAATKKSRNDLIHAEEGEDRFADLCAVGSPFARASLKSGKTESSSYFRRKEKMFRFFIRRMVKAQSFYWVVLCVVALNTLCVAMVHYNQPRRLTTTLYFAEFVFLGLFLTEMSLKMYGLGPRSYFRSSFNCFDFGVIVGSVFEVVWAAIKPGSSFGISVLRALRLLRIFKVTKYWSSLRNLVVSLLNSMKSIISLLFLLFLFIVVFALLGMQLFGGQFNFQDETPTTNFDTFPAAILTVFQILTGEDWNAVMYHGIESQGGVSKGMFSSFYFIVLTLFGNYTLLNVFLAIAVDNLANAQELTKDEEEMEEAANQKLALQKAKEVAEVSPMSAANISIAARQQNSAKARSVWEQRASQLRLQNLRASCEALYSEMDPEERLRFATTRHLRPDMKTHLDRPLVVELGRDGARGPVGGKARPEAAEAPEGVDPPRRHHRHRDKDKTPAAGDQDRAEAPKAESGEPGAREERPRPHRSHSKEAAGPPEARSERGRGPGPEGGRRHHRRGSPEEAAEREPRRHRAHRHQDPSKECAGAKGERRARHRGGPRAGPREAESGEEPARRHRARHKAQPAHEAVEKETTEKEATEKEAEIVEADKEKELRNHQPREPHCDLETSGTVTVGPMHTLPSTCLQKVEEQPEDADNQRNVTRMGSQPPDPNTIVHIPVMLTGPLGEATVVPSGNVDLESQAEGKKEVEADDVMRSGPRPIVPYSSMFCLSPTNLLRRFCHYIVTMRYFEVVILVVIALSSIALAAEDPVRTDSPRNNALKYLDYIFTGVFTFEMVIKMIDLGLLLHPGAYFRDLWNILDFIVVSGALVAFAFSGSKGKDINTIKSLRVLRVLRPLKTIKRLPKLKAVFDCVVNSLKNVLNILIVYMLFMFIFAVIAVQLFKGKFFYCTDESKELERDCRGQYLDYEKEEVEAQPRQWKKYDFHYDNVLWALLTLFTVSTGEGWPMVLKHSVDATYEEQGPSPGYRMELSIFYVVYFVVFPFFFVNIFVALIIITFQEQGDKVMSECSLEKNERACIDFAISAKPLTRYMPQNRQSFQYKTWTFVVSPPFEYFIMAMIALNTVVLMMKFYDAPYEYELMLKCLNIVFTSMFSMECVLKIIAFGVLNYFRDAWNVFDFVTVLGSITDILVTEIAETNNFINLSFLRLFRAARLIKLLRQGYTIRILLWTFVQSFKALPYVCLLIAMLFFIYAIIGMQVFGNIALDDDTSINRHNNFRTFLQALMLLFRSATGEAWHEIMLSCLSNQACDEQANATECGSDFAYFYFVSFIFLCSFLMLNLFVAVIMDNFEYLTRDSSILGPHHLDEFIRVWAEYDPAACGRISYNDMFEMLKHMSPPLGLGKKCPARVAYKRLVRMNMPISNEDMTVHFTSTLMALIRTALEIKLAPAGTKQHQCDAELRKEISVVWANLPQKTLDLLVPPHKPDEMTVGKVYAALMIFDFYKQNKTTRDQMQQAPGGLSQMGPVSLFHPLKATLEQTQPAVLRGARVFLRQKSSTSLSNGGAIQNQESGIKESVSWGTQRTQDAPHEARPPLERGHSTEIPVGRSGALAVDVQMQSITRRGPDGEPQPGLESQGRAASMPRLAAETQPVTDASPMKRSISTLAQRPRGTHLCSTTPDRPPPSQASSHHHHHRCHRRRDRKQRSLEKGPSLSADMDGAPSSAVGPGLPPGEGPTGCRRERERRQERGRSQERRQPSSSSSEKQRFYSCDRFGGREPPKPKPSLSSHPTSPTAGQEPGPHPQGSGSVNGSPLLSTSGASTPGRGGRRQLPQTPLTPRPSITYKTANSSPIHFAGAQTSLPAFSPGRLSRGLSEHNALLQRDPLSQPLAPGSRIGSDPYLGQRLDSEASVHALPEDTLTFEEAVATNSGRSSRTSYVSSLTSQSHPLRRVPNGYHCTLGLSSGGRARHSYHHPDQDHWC", "experiment": "Fluorescence assay for CaV2.2 channels using potassium depolarization to induce channel opening (FLIPR, Fluo 4)", "type": "cell-based", "details": "3 μM test compound; alternative assay buffer 30 mM KCl (inactivated channel state); HEK293 cells stably expressing human CaV2.2", "method_in_brief": "(§1)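 HEK293 cells stably co-expressing CaV2.2 with alpha2-delta and beta subunits plus Kir2.3, loaded with 2 μM Fluo 4 and pre-incubated 15 min at 25° C with compound in 1 mM or 30 mM KCl buffer (pH 7.4; latter promotes inactivated state). Depolarized by KCl addition; peak fluorescence amplitude normalized to baseline gives inhibition.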", "values": [
      {"smiles": "CCC1(S(=O)(=O)c2cccc(C(F)(F)F)c2)CCOC(c2ccc(C(F)(F)F)cn2)C1", "note": "(stereo not shown) [SC-108, 2-[4-Ethyl-4-[[3-(trifluoromethyl)phenyl]sulfonyl]-tetrahydro-pyran-2-yl]-5-(trifluoromethyl)-pyridine]", "Activity Category: %-Inhib (CaV2.2) @3 μM @30 mM KCl": "A (%-Inhibition >95%)"},
      {"smiles": "CC1(S(=O)(=O)c2cccc(C(F)(F)F)c2)CCOC(COc2ccc(C(F)(F)F)nc2)C1", "note": "(stereo not shown) [SC-209, 5-[[4-Methyl-4-[[3-(trifluoromethyl)phenyl]sulfonyl]-tetrahydro-pyran-2-yl]-methoxy]-2-(trifluoromethyl)-pyridine]", "Activity Category: %-Inhib (CaV2.2) @3 μM @30 mM KCl": "A (%-Inhibition >95%)"},
      {"smiles": "COc1ncc(C2CC(C)(S(=O)(=O)c3cccc(C(F)(F)F)c3)CCO2)cc1F", "note": "(stereo not shown) [SC-256, 3-Fluoro-2-methoxy-5-[4-methyl-4-[[3-(trifluoromethyl)phenyl]sulfonyl]-tetrahydro-pyran-2-yl]-pyridine]", "Activity Category: %-Inhib (CaV2.2) @3 μM @30 mM KCl": "B (%-Inhibition >75% up to ≤95%)"},
      {"smiles": "Cc1ccc(OCC2CC(C)(S(=O)(=O)c3cccc(C(F)(F)F)c3)CCO2)cn1", "note": "(single isomer, unassigned) [SC-113, 2-Methyl-5-[[4-methyl-4-[[3-(trifluoromethyl)phenyl]sulfonyl]-tetrahydro-pyran-2-yl]-methoxy]-pyridine]", "Activity Category: %-Inhib (CaV2.2) @3 μM @30 mM KCl": "B (%-Inhibition >75% up to ≤95%)"},
      {"smiles": "CCC1(S(=O)(=O)c2cccc(C(F)(F)F)c2)CCOC(c2ccc(C)nc2C)C1", "note": "(stereo not shown) [SC-317, 3-[4-Ethyl-4-[[3-(trifluoromethyl)phenyl]sulfonyl]-tetrahydro-pyran-2-yl]-2,6-dimethyl-pyridine]", "Activity Category: %-Inhib (CaV2.2) @3 μM @30 mM KCl": "C (%-Inhibition >40% up to ≤75%)"},
      {"smiles": "CC1(S(=O)(=O)c2cc(F)cc(C(F)(F)F)c2)CCOC(c2ncc(S(C)(=O)=O)cc2Cl)C1", "note": "(stereo not shown) [SC-215, 3-Chloro-2-[4-[[3-fluoro-5-(trifluoromethyl)-phenyl]sulfonyl]-4-methyl-tetrahydro-pyran-2-yl]-5-methylsulfonyl-pyridine]", "Activity Category: %-Inhib (CaV2.2) @3 μM @30 mM KCl": "B (%-Inhibition >75% up to ≤95%)"},
      {"smiles": "CC1(S(=O)(=O)c2cccc(OC(F)F)c2)CCOC(c2ncc(S(C)(=O)=O)cc2Cl)C1", "note": "(stereo not shown) [SC-436, 3-Chloro-2-[4-[[3-(difluoro-methoxy)-phenyl]sulfonyl]-4-methyl-tetrahydro-pyran-2-yl]-5-methylsulfonyl-pyridine]", "Activity Category: %-Inhib (CaV2.2) @3 μM @30 mM KCl": "C (%-Inhibition >40% up to ≤75%)"},
      {"smiles": "Cn1nc(C(F)(F)F)cc1C1CC(C)(S(=O)(=O)c2cccc(C(F)(F)F)c2)CCO1", "note": "(stereo not shown) [SC-345, 1-Methyl-5-[4-methyl-4-[[3-(trifluoromethyl)phenyl]sulfonyl]-tetrahydro-pyran-2-yl]-3-(trifluoromethyl)-1H-pyrazole]", "Activity Category: %-Inhib (CaV2.2) @3 μM @30 mM KCl": "A (%-Inhibition >95%)"},
      {"smiles": "CC1(S(=O)(=O)c2cccc(C(F)(F)F)c2)CCOC(c2cnc(C3CC3)nc2)C1", "note": "(stereo not shown) [SC-204, 2-Cyclopropyl-5-[4-methyl-4-[[3-(trifluoromethyl)phenyl]sulfonyl]-tetrahydro-pyran-2-yl]-pyrimidine]", "Activity Category: %-Inhib (CaV2.2) @3 μM @30 mM KCl": "B (%-Inhibition >75% up to ≤95%)"},
      {"smiles": "C[S+]([O-])c1cc(C(F)(F)F)cnc1C1CC(C)(S(=O)(=O)c2cccc(C(F)(F)F)c2)CCO1", "note": "(stereo not shown) [SC-229, 3-(Methylsulfinyl)-2-[4-methyl-4-[[3-(trifluoromethyl)phenyl]sulfonyl]-tetrahydro-pyran-2-yl]-5-(trifluoromethyl)-pyridine]", "Activity Category: %-Inhib (CaV2.2) @3 μM @30 mM KCl": "B (%-Inhibition >75% up to ≤95%)"},
      {"smiles": "CC1(S(=O)(=O)c2cccc(C(F)(F)F)c2)CCOC(c2ccc(S(C)(=O)=O)nc2)C1", "note": "(stereo not shown) [SC-336, 2-Methylsulfonyl-5-[4-methyl-4-[[3-(trifluoromethyl)phenyl]sulfonyl]-tetrahydro-pyran-2-yl]-pyridine]", "Activity Category: %-Inhib (CaV2.2) @3 μM @30 mM KCl": "C (%-Inhibition >40% up to ≤75%)"},
      {"smiles": "COc1cc(OC(F)F)c(C2CC(C)(S(=O)(=O)c3cccc(C(F)(F)F)c3)CCO2)cn1", "note": "(stereo not shown) [SC-254, 4-(Difluoro-methoxy)-2-methoxy-5-[4-methyl-4-[[3-(trifluoromethyl)phenyl]sulfonyl]-tetrahydro-pyran-2-yl]-pyridine]", "Activity Category: %-Inhib (CaV2.2) @3 μM @30 mM KCl": "A (%-Inhibition >95%)"}
    ]},
    {"biological_target": "T1, Human CaV2.2 channels", "experiment": "Fluorescence assay for CaV2.2 channels using potassium depolarization to induce channel opening (FLIPR, Fluo 4)", "type": "cell-based", "details": "HEK293, 3 μM test compound; alternative assay buffer 30 mM KCl (inactivated channel state); HEK293 cells stably expressing human CaV2.2; read-out: Activity Category: %-Inhib (CaV2.2) @3 μM @30 mM KCl", "method_in_brief": "as §1", "units": {"inhibition at 3 µM": "%"}, "values": [
      {"smiles": "COc1ncc(C2CC(C)(S(=O)(=O)c3cccc(C(F)(F)F)c3)CCO2)cn1", "note": "(stereo not shown) [SC-410, 2-Methoxy-5-[4-methyl-4-[[3-(trifluoromethyl)phenyl]sulfonyl]-tetrahydro-pyran-2-yl]-pyrimidine]", "inhibition at 3 µM": "40 to 75"},
      {"smiles": "Cc1ccc(OCC2CC(C)(S(=O)(=O)c3cccc(C(F)(F)F)c3)CCO2)cn1", "note": "(stereo not shown) [SC-114, 2-Methyl-5-[[4-methyl-4-[[3-(trifluoromethyl)phenyl]sulfonyl]-tetrahydro-pyran-2-yl]-methoxy]-pyridine]", "inhibition at 3 µM": "75 to 95"},
      {"smiles": "CC1(S(=O)(=O)c2cccc(C(F)(F)F)c2)CCOC(c2ncc(C(F)(F)F)cc2S(C)(=O)=O)C1", "note": "(stereo not shown) [SC-355, 3-Methylsulfonyl-2-[4-methyl-4-[[3-(trifluoromethyl)phenyl]sulfonyl]-tetrahydro-pyran-2-yl]-5-(trifluoromethyl)-pyridine]", "inhibition at 3 µM": "75 to 95"},
      {"smiles": "CC1(S(=O)(=O)c2cccc(C(F)(F)F)c2)CCOC(c2ccc(Br)nc2)C1", "note": "(racemic) [SC-337, 2-Bromo-5-[4-methyl-4-[[3-(trifluoromethyl)phenyl]sulfonyl]-tetrahydro-pyran-2-yl]-pyridine]", "inhibition at 3 µM": "> 95"},
      {"smiles": "CCC1(S(=O)(=O)c2cccc(C(F)(F)F)c2)CCOC(c2nc(C(F)(F)F)no2)C1", "note": "(stereo not shown) [SC-200, 5-[4-Ethyl-4-[[3-(trifluoromethyl)phenyl]sulfonyl]-tetrahydro-pyran-2-yl]-3-(trifluoromethyl)-[1,2,4]oxadiazole]", "inhibition at 3 µM": "75 to 95"},
      {"smiles": "Cn1nc(C2CC2)cc1C1CC(C)(S(=O)(=O)c2cccc(C(F)(F)F)c2)CCO1", "note": "(racemic) [SC-434, 3-Cyclopropyl-1-methyl-5-[4-methyl-4-[[3-(trifluoromethyl)phenyl]sulfonyl]-tetrahydro-pyran-2-yl]-1H-pyrazole]", "inhibition at 3 µM": "75 to 95"},
      {"smiles": "CC1(S(=O)(=O)c2cccc(C(F)(F)F)c2)CCOC(c2ccc(Cl)cn2)C1", "note": "(stereo not shown) [SC-243, 5-Chloro-2-[4-methyl-4-[[3-(trifluoromethyl)phenyl]sulfonyl]-tetrahydro-pyran-2-yl]-pyridine]", "inhibition at 3 µM": "> 95"},
      {"smiles": "CN(C)c1cnc(C2CC(C)(S(=O)(=O)c3cccc(C(F)(F)F)c3)CCO2)cn1", "note": "(stereo not shown) [SC-421, Dimethyl-[5-[4-methyl-4-[[3-(trifluoromethyl)phenyl]sulfonyl]-tetrahydro-pyran-2-yl]-pyrazin-2-yl]-amine]", "inhibition at 3 µM": "75 to 95"},
      {"smiles": "CC1(S(=O)(=O)c2cccc(C(F)(F)F)c2)CCOC(c2nc(C3CC3)co2)C1", "note": "(stereo not shown) [SC-158, 4-Cyclopropyl-2-[4-methyl-4-[[3-(trifluoromethyl)phenyl]sulfonyl]-tetrahydro-pyran-2-yl]-oxazole]", "inhibition at 3 µM": "> 95"},
      {"smiles": "CC(C)c1cccc(S(=O)(=O)C2(C)CCOC(c3ncc(S(C)(=O)=O)cc3Cl)C2)c1", "note": "(stereo not shown) [SC-446, 3-Chloro-2-[4-[(3-isopropyl-phenyl)sulfonyl]-4-methyl-tetrahydro-pyran-2-yl]-5-methylsulfonyl-pyridine]", "inhibition at 3 µM": "75 to 95"},
      {"smiles": "COc1cc(C)c(C2CC(C)(S(=O)(=O)c3cccc(C(F)(F)F)c3)CCO2)cn1", "note": "(stereo not shown) [SC-248, 2-Methoxy-4-methyl-5-[4-methyl-4-[[3-(trifluoromethyl)phenyl]sulfonyl]-tetrahydro-pyran-2-yl]-pyridine]", "inhibition at 3 µM": "75 to 95"},
      {"smiles": "CC1(S(=O)(=O)c2cccc(C(F)(F)F)c2)CCOC(c2ncc(S(C)(=O)=O)cc2C2CC2)C1", "note": "(stereo not shown) [SC-270, 3-cyclopropyl-2-(4-methyl-4-(3-(trifluoromethyl)phenylsulfonyl)tetrahydro-2H-pyran-2-yl)-5-(methylsulfonyl)pyridine]", "inhibition at 3 µM": "75 to 95"},
      {"smiles": "CC1(S(=O)(=O)c2cccc(C(F)(F)F)c2)CCOC(c2ccc(-n3cncn3)nc2)C1", "note": "(racemic) [SC-407, 5-[4-Methyl-4-[[3-(trifluoromethyl)phenyl]sulfonyl]-tetrahydro-pyran-2-yl]-2-(1H-[1,2,4]triazol-1-yl)-pyridine]", "inhibition at 3 µM": "75 to 95"},
      {"smiles": "CCC1(S(=O)(=O)c2cccc(C(F)(F)F)c2)CCOC(c2noc(C3CC3)n2)C1", "note": "(stereo not shown) [SC-238, 5-Cyclopropyl-3-[4-ethyl-4-[[3-(trifluoromethyl)phenyl]sulfonyl]-tetrahydro-pyran-2-yl]-[1,2,4]oxadiazole]", "inhibition at 3 µM": "75 to 95"},
      {"smiles": "CC1(S(=O)(=O)c2cccc(C(F)(F)F)c2)CCOC(c2ccc(-n3cncn3)nc2)C1", "note": "(stereo not shown) [SC-402, 5-[4-Methyl-4-[[3-(trifluoromethyl)phenyl]sulfonyl]-tetrahydro-pyran-2-yl]-2-(1H-[1,2,4]triazol-1-yl)-pyridine]", "inhibition at 3 µM": "75 to 95"},
      {"smiles": "CC1(S(=O)(=O)c2cccc(C(F)(F)F)c2)CCOC(c2ccc(C(F)(F)F)nc2)C1", "note": "(racemic) [SC-306, 5-[4-Methyl-4-[[3-(trifluoromethyl)phenyl]sulfonyl]-tetrahydro-pyran-2-yl]-2-(trifluoromethyl)-pyridine]", "inhibition at 3 µM": "> 95"},
      {"smiles": "COCCOc1ccc(C2CC(C)(S(=O)(=O)c3cccc(C(F)(F)F)c3)CCO2)cn1", "note": "(racemic) [SC-420, 2-(2-Methoxy-ethoxy)-5-[4-methyl-4-[[3-(trifluoromethyl)phenyl]sulfonyl]-tetrahydro-pyran-2-yl]-pyridine]", "inhibition at 3 µM": "75 to 95"},
      {"smiles": "CC1(S(=O)(=O)c2cccc(C(F)(F)F)c2)CCOC(COc2cnc(C3CC3)cn2)C1", "note": "(single isomer, unassigned) [SC-132, 2-Cyclopropyl-5-[[4-methyl-4-[[3-(trifluoromethyl)phenyl]sulfonyl]-tetrahydro-pyran-2-yl]-methoxy]-pyrazine]", "inhibition at 3 µM": "75 to 95"},
      {"smiles": "CCC1(S(=O)(=O)c2cccc(C(F)(F)F)c2)CCOC(c2cccnc2C)C1", "note": "(stereo not shown) [SC-312, 3-[4-Ethyl-4-[[3-(trifluoromethyl)phenyl]sulfonyl]-tetrahydro-pyran-2-yl]-2-methyl-pyridine]", "inhibition at 3 µM": "40 to 75"}
    ]}
  ]
}
